In ChEMBL document CHEMBL5465560, “Selectivity Literature for EUbOPEN Chemogenomic Library” (2024):
Blank lines part the entries; values can stand above or below the compound they belong to.

Assays:
[1] = molecular target: T1, Serine/threonine-protein kinase Sgk2 (Homo sapiens) (UniProt Q9HBY8); test: Selectivity interaction (ActivX KiNativ screen (kinase selectivity in THP-1 cell lysates)) EUB0000639a SGK2; type: subcellular; settings: lysate
T1 sequence (whole entry): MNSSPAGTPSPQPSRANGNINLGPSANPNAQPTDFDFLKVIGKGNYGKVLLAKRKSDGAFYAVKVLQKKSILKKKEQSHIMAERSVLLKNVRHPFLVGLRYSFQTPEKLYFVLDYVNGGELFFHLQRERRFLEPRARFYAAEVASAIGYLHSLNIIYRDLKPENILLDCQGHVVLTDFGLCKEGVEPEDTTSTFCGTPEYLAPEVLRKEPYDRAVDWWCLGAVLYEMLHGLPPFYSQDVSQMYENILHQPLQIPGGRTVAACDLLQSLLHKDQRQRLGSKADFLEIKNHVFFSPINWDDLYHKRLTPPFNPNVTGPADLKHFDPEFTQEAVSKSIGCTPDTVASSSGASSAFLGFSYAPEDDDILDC

[2] = molecular target: T2, Histone-arginine methyltransferase CARM1 (Homo sapiens) (UniProt Q86X55); settings: at 10 µM
T2 sequence (whole entry): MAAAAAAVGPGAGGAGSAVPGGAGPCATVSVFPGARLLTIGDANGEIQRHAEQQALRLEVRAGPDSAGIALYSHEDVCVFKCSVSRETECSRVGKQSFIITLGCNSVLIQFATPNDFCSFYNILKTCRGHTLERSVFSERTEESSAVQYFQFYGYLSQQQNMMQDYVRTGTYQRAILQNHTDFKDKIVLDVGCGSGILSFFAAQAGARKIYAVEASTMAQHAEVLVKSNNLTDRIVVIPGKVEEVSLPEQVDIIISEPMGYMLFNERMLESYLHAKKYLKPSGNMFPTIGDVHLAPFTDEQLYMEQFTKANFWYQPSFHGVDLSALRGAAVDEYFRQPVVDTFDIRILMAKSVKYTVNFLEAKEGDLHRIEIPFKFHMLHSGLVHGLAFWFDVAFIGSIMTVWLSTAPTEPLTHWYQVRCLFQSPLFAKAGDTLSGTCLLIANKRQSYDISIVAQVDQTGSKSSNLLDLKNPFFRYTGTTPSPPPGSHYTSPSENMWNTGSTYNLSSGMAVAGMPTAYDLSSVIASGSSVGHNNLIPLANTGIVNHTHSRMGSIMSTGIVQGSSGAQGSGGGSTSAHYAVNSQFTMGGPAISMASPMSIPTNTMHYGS

[3] = molecular target: T3, Ribosomal protein S6 kinase alpha-6 (Homo sapiens, UniProt Q9UK32); test: Selectivity interaction (KinomeScan (DiscoverX)) EUB0000595a RPS6KA6; settings: at 10 µM
[4] = molecular target: T4, Serine/threonine-protein kinase tousled-like 1 (Homo sapiens) (UniProt Q9UKI8); test: Selectivity interaction (ProQinase) EUB0000171b TLK1
T4 sequence (whole entry): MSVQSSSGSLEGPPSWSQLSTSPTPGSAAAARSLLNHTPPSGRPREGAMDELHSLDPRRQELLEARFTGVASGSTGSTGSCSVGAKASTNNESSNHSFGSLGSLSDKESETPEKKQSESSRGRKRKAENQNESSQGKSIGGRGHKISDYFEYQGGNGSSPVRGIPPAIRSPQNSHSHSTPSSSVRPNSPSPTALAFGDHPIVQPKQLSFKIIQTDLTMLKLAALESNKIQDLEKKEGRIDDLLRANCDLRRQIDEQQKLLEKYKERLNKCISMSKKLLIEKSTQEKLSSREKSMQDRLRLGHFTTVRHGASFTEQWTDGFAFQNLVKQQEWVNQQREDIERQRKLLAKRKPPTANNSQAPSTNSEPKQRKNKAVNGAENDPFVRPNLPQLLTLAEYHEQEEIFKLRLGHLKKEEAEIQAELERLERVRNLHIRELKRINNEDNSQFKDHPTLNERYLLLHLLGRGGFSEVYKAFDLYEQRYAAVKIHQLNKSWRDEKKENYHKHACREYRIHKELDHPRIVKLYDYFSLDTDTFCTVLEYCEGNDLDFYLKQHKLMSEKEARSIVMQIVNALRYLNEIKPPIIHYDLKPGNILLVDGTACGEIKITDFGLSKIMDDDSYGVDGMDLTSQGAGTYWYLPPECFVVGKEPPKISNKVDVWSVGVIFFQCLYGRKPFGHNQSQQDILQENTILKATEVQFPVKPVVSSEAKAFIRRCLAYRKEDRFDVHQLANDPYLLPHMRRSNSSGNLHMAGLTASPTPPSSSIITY

[5] = molecular target: Serine/threonine-protein kinase 25 (Homo sapiens) (UniProt O00506); test: Selectivity interaction (KinomeScan (DiscoverX)) EUB0000618a STK25; settings: at 10 µM
[6] = molecular target: T3, Ribosomal protein S6 kinase alpha-6; test: Selectivity interaction (SelectScreen profiling (Invitrogen)) EUB0000607a RPS6KA6; settings: at 2 µM

T3 sequence (Q9UK32 whole entry): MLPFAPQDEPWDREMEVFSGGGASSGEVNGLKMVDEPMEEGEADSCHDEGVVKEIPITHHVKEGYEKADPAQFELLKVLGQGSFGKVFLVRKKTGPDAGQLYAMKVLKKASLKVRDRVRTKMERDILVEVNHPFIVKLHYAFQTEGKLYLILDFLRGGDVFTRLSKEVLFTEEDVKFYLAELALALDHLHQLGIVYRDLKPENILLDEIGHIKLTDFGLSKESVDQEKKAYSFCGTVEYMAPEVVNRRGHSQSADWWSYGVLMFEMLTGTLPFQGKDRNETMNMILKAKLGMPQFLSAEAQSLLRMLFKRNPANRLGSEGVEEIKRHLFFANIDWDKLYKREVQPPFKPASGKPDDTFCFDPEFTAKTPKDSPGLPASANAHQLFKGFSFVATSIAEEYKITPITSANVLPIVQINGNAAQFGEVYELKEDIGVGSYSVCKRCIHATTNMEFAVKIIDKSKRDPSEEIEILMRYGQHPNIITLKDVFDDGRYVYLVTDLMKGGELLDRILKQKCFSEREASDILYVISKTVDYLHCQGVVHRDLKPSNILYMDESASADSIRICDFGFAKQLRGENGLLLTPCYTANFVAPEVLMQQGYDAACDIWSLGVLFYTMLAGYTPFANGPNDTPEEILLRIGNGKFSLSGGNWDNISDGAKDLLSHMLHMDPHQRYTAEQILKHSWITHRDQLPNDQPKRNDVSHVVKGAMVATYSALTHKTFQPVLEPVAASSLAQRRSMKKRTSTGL
Sequence of Serine/threonine-protein kinase 25 (Homo sapiens) (O00506 whole entry, looked up): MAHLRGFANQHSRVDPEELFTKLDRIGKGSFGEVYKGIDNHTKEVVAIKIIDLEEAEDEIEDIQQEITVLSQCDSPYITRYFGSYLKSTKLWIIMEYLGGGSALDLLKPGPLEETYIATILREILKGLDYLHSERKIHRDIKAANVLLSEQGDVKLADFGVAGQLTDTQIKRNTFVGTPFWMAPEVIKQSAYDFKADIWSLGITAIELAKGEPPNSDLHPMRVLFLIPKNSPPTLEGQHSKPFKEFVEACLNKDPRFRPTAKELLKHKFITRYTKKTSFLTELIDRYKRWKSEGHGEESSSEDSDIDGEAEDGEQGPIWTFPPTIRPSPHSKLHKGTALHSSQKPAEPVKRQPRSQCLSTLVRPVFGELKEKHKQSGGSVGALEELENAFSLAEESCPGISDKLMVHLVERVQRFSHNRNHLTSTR

% of inhibition ([1]; at 0.01 µM): -1%
% of inhibition ([1]; at 0.04 µM): 3.1%
% of inhibition ([1]; at 0.2 µM): -5.7%
% of inhibition ([1]; at 1 µM): -1%
% of inhibition ([1]; at 5 µM): -1.4%
Structure (SMILES): CC[C@@H]1[C@H](F)C(=O)N[C@@H]1COc1nccc2cc(C(N)=O)c(OC)cc12 [ZIMLOVISERTIB]

% activity [2]: 1%
Structure (SMILES): CNCCN1CCC(c2cc(CN(C)C(=O)c3cccc(Oc4ccccc4)c3)ccn2)CC1

Structure (SMILES): COCC(=O)NC/C=C/c1ccc2ncnc(Nc3ccc(Oc4ccc(C)nc4)c(C)c3)c2c1 [CP-724714]
% of control [3]: 88%

% of control ([4]; at 1 µM): 97%
% of control ([4]; at 5 µM): 90%
Structure (SMILES): C=CC(=O)Nc1cccc(C(=O)Nc2ccc(Nc3cc(-c4[nH]c(SC)nc4C)ccn3)cc2)c1

Structure (SMILES): O[C@H]1CC[C@H](Nc2ncc3nc(Nc4c(F)cc(F)cc4F)n([C@H]4CCOC4)c3n2)CC1
% of control [5]: 64%

Structure (SMILES): CNC(=O)Nc1ccc(-c2nc(N3CC4CCC(C3)O4)c3cnn(C4CCC5(CC4)OCCO5)c3n2)cc1
% of inhibition [6]: 12%
